Experimental data taken from patent US20250345307A1, “SYNTHETIC […] BROAD-SPECTRUM ANTIVIRAL ACTIVITIES AND USES THEREOF” (priority 2020, published 2025).
pEC50: −log10 of the molar value. Entries after “also recorded” stand apart in the source; their conditions may differ. Like-named read-outs stand apart in the source and are kept apart here.

Tests used:
tumor growth = details: xenograft mouse model; cited from earlier work
[1] = mice, cited from earlier work
[2] = test system: persistently HEV-infected A549 cells; details: 2 nM, 72 h
HEV = type: cell-based, hepatitis E virus
NHBE cells = assay: Cytotoxicity in differentiated NHBE cells by light microscopy; type: cell-based, human; details: 100 nM
SARS-CoV-2 [3] = type: cell-based, severe acute respiratory syndrome coronavirus 2
ZIKV = assay: Antiviral activity against ZIKV (strain 976 Uganda) in A549 cells, intracellular ZIKV genomes by qRT-PCR; type: cell-based; details: Zika virus
MERS-CoV [4] = details: read-out: EC50 reported previously for MERS-CoV; cited from earlier work
HCoV-229E [5] = assay: Immunofluorescence of nsp8 and dsRNA in HCoV-229E-infected MRC-5 cells; type: cell-based, human coronavirus 229E; details: MRC-5, MOI 1, 24 hpi
HCoV-229E [6] = assay: microbe, parasite or virus in culture; type: cell-based, human coronavirus 229E
HCoV-229E [7] = type: cell-based, human coronavirus 229E
HCoV-229E [8] = type: cell-based, human coronavirus 229E; remark: listed apart in the source
[9] = test system: eIF4A-dependent translation; assay: cells; type: cell-based; details: for inhibition at 0.01 µM: read-out: inhibition of translation of the (AG)15 construct
SARS-CoV-2 [10] = assay: microbe, parasite or virus in culture; type: cell-based, severe acute respiratory syndrome coronavirus 2
SARS-CoV-2 [11] = assay: Immunofluorescence of viral dsRNA in SARS-CoV-2-infected Vero E6 cells; type: cell-based, severe acute respiratory syndrome coronavirus 2; details: Vero E6, MOI 1, 24 h p.i.
MERS-CoV [12] = assay: microbe, parasite or virus in culture; type: cell-based, Middle East respiratory syndrome coronavirus
HCoV-229E [13] = details: Müller et al. [2020]; read-out: EC50 reported previously for HCoV-229E; cited from earlier work
HCoV-229E [14] = type: cell-based, human coronavirus 229E; remark: listed apart in the source
CCHFV = assay: microbe, parasite or virus in culture; type: cell-based, Crimean-Congo hemorrhagic fever virus; details: for pEC50: Orthonairovirus haemorrhagiae, Hepatocyte, in Mus musculus
LASV = assay: microbe, parasite or virus in culture; type: cell-based, Lassa mammarenavirus; details: for pEC50: Mammarenavirus lassaense, Hepatocyte, in Mus musculus
SARS-CoV-2 [15] = type: cell-based, severe acute respiratory syndrome coronavirus 2; remark: listed apart in the source
murine hepatocytes = details: for CC50: mouse
A549 cells = details: human
[16] = Middle East respiratory syndrome-related coronavirus, MRC5

CR-31-B
tumor growth (tumor growth): reduced tumor growth efficiently | serum levels of aminotransferases (ALT and AST), albumin, total bilirubin, creatinine ([1]; two weeks after cessation of treatment): not significantly changed | body weight, number of blood cells [1]: did not change | toxicity in the gastrointestinal tract [1]: no toxicity could be observed | cytotoxic effects (in words) (MRC-5 cells): no major cytotoxic effects | reduction of cell viability [2]: not cytotoxic

CONC(=O)[C@H]1[C@@H](O)[C@@]2(O)c3c(OC)cc(OC)cc3O[C@@]2(c2ccc(OC)cc2)[C@@H]1c1ccccc1 [CR-31-B (−)]
antiviral effect on extracellular HEV RNA levels (HEV): slightly weaker; also recorded: some antiviral activity | cytotoxicity by light microscopy (NHBE cells): No obvious cytotoxicity | SARS-CoV-2 replication / titers (SARS-CoV-2 [3]): undetectable levels | reduction of SARS-CoV-2 titers (SARS-CoV-2 [3]): about 4 logs | reduction of production of infectious virus progeny (SARS-CoV-2 [3]): approximately 1.5 log steps | cytotoxicity (in words) (MRC-5 cells): no major cytotoxicity | CC50 (MRC-5 cells; human): > 5000 nM | reduction of cell viability (MRC-5 cells; human): 10-25% | pEC50 (ZIKV; A549 cells, MOI 0.1, ZIKV genomes by qRT-PCR, 24 hpi, read-out: EC50): 8.95 | pEC50 (MERS-CoV [4]): 8.73 | formation of viral replication/transcription complexes (HCoV-229E [5]): reduced | reduction of cell viability [2]: no major cytotoxic effects | pEC50 (HCoV-229E [6]): 8.54 | pEC50 (HCoV-229E [6]; Human coronavirus 229E, MRC5): 8.46 | genomic and subgenomic RNA levels of HCoV-229E (HCoV-229E [7]): reduced | infectious virus production (HCoV-229E [8]): undetectable levels | reduction of virus titer in the supernatant (HCoV-229E [8]): about 1.5 orders of magnitude | induction of luciferase activity [9]: 1.5 fold | reporter activity, VP35-HP only [9]: about twofold | reporter activity, VP35-HP+(AG)5 [9]: reduced back to basic levels | sensitivity of translation, EBOV VP35 5′-UTR [9]: insensitive | sensitivity to eIF4A-dependent translation inhibition, 5′-UTRs of SARS-CoV-2, HCoV-229E and MERS-CoV [9]: similarly sensitive | sensitivity to translation inhibition, 5′-UTRs of HCoV-229E, MERS-CoV and EBOV VP30 [9]: similarly sensitive | sensitivity, HEVgt3c-Purine 5′-UTR [9]: became sensitive | inhibition at 0.01 µM [9]: ~80% | selectivity index (CC50/EC50) (SARS-CoV-2 [10]): > 50 | pEC50 (SARS-CoV-2 [10]; Severe acute respiratory syndrome coronavirus 2, Vero C1008, 24 h): ~8.74 | replicative organelles active in viral RNA synthesis (dsRNA) (SARS-CoV-2 [11]): profound reduction | pEC50 (MERS-CoV [12]): 8.73 | MERS-CoV titer reduction (MERS-CoV [12]): about 5 log phases | pEC50 (MERS-CoV [12]; [16]): 8.68 | pEC50 (HCoV-229E [13]): 8.54 | Coronavirus N-protein levels (HCoV-229E [14]): strongly reduced | virus titer drop, CCHFV-infected cells (CCHFV): ~3 log | pEC50 (CCHFV): 7.70 | antiviral activity against LASV and CCHFV (in words) (LASV): potent antiviral activity | virus titer drop, LASV-infected cells (LASV): approximately 4 log | pEC50 (LASV): 7.44 | pEC50 (LASV; read-out: EC50 values): 7.30 to 7.70 | Viral nucleocapsid (N) protein levels (SARS-CoV-2 [15]): drastically reduced; also recorded: moderately reduced | cytotoxicity (in words) (Vero E6 cells): No major cytotoxicity | cell viability reduced by (Vero E6 cells; African green monkey): 10-25% | cytotoxicity (in words) (murine hepatocytes): no detectable cytotoxicity | CC50 (murine hepatocytes): > 5000 nM

COC(=O)[C@H]1[C@@H](O)[C@@]2(O)c3c(OC)cc(O[C@@H]4O[C@@H]([C@H](O)CO)CO[C@H]4OC)cc3O[C@@]2(c2ccc(OC)cc2)[C@@H]1c1ccccc1 [Silvestrol, methyl(1R,2R,3S,3aR,8bS)-6-[[(2S,3R,6R)-6-[(1R)-1,2-dihydroxyethyl]-3-methoxy-1,4-dioxan-2-yl]oxy]-1,8b-dihydroxy-8-methoxy-3a-(4-methoxyphenyl)-3-phenyl-2,3-dihydro-1H-cyclopenta[b][1]benzofuran-2-carboxylate, reference compound]
tumor growth (tumor growth): reduced tumor growth efficiently | CC50 (A549 cells): 9.42 nM | antiviral effect on extracellular HEV RNA levels (HEV): antiviral activity | SARS-CoV-2 replication / titers (SARS-CoV-2 [3]): completely abolished | CC50 (MRC-5 cells; human): > 10000 nM | pEC50 (ZIKV; A549): 8.97 | pEC50 (HCoV-229E [6]; Human coronavirus 229E, MRC5): 8.52 | infectious virus production (HCoV-229E [8]): undetectable levels | reduction of virus titer in the supernatant (HCoV-229E [8]): similar | induction of luciferase activity [9]: 1.5 fold | inhibitory effect, destabilized HEV 5′-UTR hairpin [9]: gradual loss of the inhibitory effect | luciferase activity, HEVgt3c 5′-UTR [9]: reduced luciferase activity | reporter activity, VP35-HP only [9]: sufficient to mediate translation inhibition | reporter activity, VP35-HP+(AG)5 [9]: slightly increased translation inhibition | sensitivity of translation, EBOV VP35 5′-UTR [9]: sensitive | sensitivity to translation inhibition, 5′-UTRs of HCoV-229E, MERS-CoV and EBOV VP30 [9]: similarly sensitive | sensitivity, HEVgt3c-Purine 5′-UTR [9]: became sensitive | inhibition at 0.01 µM [9]: ~55% | pEC50 (MERS-CoV [12]; [16]): 8.89 | virus titer drop, CCHFV-infected cells (CCHFV): ~3 log | pEC50 (CCHFV): 7.54 | antiviral activity against LASV and CCHFV (in words) (LASV): potent antiviral activity | virus titer drop, LASV-infected cells (LASV): approximately 4 log | pEC50 (LASV): 7.29 | pEC50 (LASV; read-out: EC50 values): 7.30 to 7.70 | cytotoxicity (in words) (murine hepatocytes): no detectable cytotoxicity | CC50 (murine hepatocytes): > 5000 nM

CONC(=O)[C@@H]1[C@H](O)[C@]2(O)c3c(OC)cc(OC)cc3O[C@]2(c2ccc(OC)cc2)[C@H]1c1ccccc1 [CR-31-B (+)]
SARS-CoV-2 replication / titers (SARS-CoV-2 [3]): did not affect viral replication | cytotoxicity (in words) (MRC-5 cells): no major cytotoxicity | reduction of cell viability [2]: no major cytotoxic effects | infectious virus production (HCoV-229E [8]): did not significantly reduce viral replication | Coronavirus N-protein levels (HCoV-229E [14]): no detectable effect | antiviral activity against LASV and CCHFV (in words) (LASV): no antiviral effects | Viral nucleocapsid (N) protein levels (SARS-CoV-2 [15]): not affected
